The source made the active and inactive calls. The calls are words filed in the database; no cut-off is given here.
Columns and labels:
[1] = biological target: T1, Protein cereblon/Cyclin-dependent kinase 12 (Homo sapiens) (UniProt Q9NYV4+Q96SW2); assay: PROTAC activity at CRBN/CDK12 in human MDA-MB-231 cells assessed as induction of CDK12 degradation incubated for 15 hrs by immunoblotting analysis; type: cell-based
[2] = biological target: T2, Protein cereblon/Cyclin-dependent kinase 13 (Homo sapiens) (UniProt Q14004+Q96SW2); assay: PROTAC activity at CRBN/CDK13 in human MDA-MB-231 cells assessed as induction of CDK13 degradation incubated for 15 hrs by immunoblotting analysis; type: cell-based
T2 sequence (Q14004 whole entry, looked up): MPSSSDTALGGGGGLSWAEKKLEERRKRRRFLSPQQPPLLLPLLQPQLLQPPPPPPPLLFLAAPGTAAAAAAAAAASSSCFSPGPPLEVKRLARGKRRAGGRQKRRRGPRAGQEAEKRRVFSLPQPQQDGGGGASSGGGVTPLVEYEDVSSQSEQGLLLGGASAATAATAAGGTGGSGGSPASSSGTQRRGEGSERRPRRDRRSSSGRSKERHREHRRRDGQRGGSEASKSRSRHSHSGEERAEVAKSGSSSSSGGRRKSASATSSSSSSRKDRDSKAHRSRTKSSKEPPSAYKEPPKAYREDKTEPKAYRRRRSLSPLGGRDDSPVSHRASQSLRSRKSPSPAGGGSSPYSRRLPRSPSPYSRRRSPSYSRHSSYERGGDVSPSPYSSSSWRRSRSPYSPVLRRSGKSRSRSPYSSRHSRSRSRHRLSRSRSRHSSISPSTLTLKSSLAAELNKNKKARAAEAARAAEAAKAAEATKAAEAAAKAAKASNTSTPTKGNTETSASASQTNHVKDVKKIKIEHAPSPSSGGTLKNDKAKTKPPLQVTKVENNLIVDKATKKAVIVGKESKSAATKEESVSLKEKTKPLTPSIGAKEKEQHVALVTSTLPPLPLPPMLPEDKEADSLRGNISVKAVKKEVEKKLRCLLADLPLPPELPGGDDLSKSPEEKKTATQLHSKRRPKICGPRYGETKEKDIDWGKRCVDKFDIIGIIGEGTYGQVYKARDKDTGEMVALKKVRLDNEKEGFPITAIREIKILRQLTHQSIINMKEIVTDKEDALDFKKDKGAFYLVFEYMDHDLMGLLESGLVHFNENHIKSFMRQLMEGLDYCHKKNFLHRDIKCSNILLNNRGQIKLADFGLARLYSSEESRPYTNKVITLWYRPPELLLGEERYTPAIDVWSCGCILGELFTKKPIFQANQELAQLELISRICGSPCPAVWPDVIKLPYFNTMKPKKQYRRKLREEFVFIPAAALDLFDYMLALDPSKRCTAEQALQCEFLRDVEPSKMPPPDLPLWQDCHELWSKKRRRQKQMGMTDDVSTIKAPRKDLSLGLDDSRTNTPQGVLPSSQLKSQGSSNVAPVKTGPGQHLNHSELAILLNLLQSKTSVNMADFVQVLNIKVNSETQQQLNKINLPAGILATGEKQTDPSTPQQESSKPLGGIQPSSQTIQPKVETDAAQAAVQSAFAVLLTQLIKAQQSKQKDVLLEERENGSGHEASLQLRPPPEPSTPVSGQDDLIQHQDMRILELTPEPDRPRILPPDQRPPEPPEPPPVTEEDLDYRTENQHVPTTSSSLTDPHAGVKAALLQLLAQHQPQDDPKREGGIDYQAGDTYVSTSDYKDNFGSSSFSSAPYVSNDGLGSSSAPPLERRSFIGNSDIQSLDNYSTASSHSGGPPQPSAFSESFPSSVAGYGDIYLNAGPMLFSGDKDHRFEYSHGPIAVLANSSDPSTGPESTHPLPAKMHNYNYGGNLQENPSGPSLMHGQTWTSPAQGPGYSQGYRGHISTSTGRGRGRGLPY
T2 sequence (Q96SW2 whole entry, looked up): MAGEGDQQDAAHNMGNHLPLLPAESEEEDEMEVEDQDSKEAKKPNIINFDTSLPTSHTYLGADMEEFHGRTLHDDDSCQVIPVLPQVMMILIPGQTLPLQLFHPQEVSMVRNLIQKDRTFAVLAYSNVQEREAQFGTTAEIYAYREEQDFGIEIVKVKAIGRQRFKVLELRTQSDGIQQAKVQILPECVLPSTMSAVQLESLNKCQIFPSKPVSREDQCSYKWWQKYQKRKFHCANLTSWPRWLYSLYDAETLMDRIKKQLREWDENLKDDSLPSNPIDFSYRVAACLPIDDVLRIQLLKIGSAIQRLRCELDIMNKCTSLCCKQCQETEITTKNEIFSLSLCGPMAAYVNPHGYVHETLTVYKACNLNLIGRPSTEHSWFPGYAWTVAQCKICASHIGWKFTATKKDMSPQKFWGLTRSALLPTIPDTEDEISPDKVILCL

[3] = biological target: T2, Protein cereblon/Cyclin-dependent kinase 13 (Homo sapiens); assay: PROTAC activity at CRBN/CDK13 in human MDA-MB-231 cells assessed as induction of CDK13 degradation at 1 uM by immunoblotting analysis; type: cell-based; conditions: time <= 24.0 hrs, TDE = time-dependent effect
[4] = biological target: T1, Protein cereblon/Cyclin-dependent kinase 12 (Homo sapiens); assay: PROTAC activity at CRBN/CDK12 in human HCC38 cells assessed as induction of CDK12 degradation incubated for 15 hrs by immunoblotting analysis; type: cell-based; conditions: dose 0.01-3 µM
[5] = biological target: T2, Protein cereblon/Cyclin-dependent kinase 13 (Homo sapiens); assay: PROTAC activity at CRBN/CDK13 in human HCC38 cells assessed as induction of CDK13 degradation incubated for 15 hrs by immunoblotting analysis; type: cell-based; conditions: dose 0.01-3 µM
[6] = biological target: T1, Protein cereblon/Cyclin-dependent kinase 12 (Homo sapiens); assay: PROTAC activity at CRBN/CDK12 in human MDA-MB-436 cells assessed as induction of CDK12 degradation incubated for 15 hrs by immunoblotting analysis; type: cell-based; conditions: dose 0.01-3 µM
[7] = biological target: T1, Protein cereblon/Cyclin-dependent kinase 12 (Homo sapiens); assay: PROTAC activity at CRBN/CDK12 in human MDA-MB-231 cells assessed as induction of CDK12 degradation at 1 uM pretreated with MG132 followed by compound addition and measured after 10 hrs by immunoblotting analysis; type: cell-based
[8] = biological target: T1, Protein cereblon/Cyclin-dependent kinase 12 (Homo sapiens); assay: PROTAC activity at CRBN/CDK12 in human MDA-MB-231 cells assessed as induction of CDK12 degradation at 1 uM pretreated with bafilomycin followed by compound addition and measured after 10 hrs by immunoblotting analysis; type: cell-based
[9] = biological target: T2, Protein cereblon/Cyclin-dependent kinase 13 (Homo sapiens); assay: PROTAC activity at CRBN/CDK13 in human MDA-MB-231 cells assessed as induction of CDK13 degradation at 1 uM pretreated with bafilomycin followed by compound addition and measured after 10 hrs by immunoblotting analysis; type: cell-based
[10] = biological target: T1, Protein cereblon/Cyclin-dependent kinase 12 (Homo sapiens); assay: PROTAC activity at CRBN/CDK12 in human MDA-MB-231 cells assessed as induction of CDK12 degradation at 1 uM pretreated with pomalidomide followed by compound addition and measured after 10 hrs by immunoblotting analysis; type: cell-based
[11] = biological target: T2, Protein cereblon/Cyclin-dependent kinase 13 (Homo sapiens); assay: PROTAC activity at CRBN/CDK13 in human MDA-MB-231 cells assessed as induction of CDK13 degradation at 1 uM pretreated with pomalidomide followed by compound addition and measured after 10 hrs by immunoblotting analysis; type: cell-based
[12] = biological target: T1, Protein cereblon/Cyclin-dependent kinase 12 (Homo sapiens); assay: PROTAC activity at CRBN/CDK12 in human MDA-MB-231 cells assessed as induction of CDK12 degradation at 1 uM pretreated with 3-benzyl-1-((1r,4r)-4-((5-cyanopyridin-2-yl)amino)cyclohexyl)-1-(4-(piperazin-1-yl)phenyl)urea followed by compound addition and measured after 10 hrs by immunoblotting analysis; type: cell-based
[13] = test system: MDA-MB-231; assay: Induction of CCNK degradation in human MDA-MB-231 cells at 2 uM incubated for 8 hrs by global proteomic analysis; type: cell-based
[14] = biological target: T2, Protein cereblon/Cyclin-dependent kinase 13 (Homo sapiens); assay: PROTAC activity at CRBN/CDK13 in human MDA-MB-231 cells assessed as induction of CDK13 degradation at 2 uM by […] proteomic analysis; type: cell-based
[15] = test system: MDA-MB-231; assay: Induction of CCNK degradation in human MDA-MB-231 cells incubated for 15 hrs by immunoblotting analysis; type: cell-based; conditions: dose 0.01-3 µM
[16] = test system: MDA-MB-231; assay: Downregulation of ATM mRNA expression in human MDA-MB-231 cells incubated for 12 hrs by RT-qPCR analysis; type: functional, cell-based; conditions: dose 60-300 nM
[17] = test system: MDA-MB-231; assay: Downregulation of ATR mRNA expression in human MDA-MB-231 cells incubated for 12 hrs by RT-qPCR analysis; type: functional, cell-based; conditions: dose 60-300 nM
[18] = test system: MDA-MB-231; assay: Downregulation of BRCA1 mRNA expression in human MDA-MB-231 cells incubated for 12 hrs by RT-qPCR analysis; type: functional, cell-based; conditions: dose 60-300 nM
[19] = test system: MDA-MB-231; assay: Downregulation of SMARCC mRNA expression in human MDA-MB-231 cells incubated for 12 hrs by RT-qPCR analysis; type: functional, cell-based; conditions: dose 60-300 nM
[20] = test system: MDA-MB-231; assay: Downregulation of ATM protein level in human MDA-MB-231 cells at 0.1 to 0.5 uM incubated for 48 hrs by immunoblotting analysis; type: functional, cell-based; conditions: dose 0.1-0.5 µM
[21] = test system: MDA-MB-231; assay: Downregulation of RAD51 protein level in human MDA-MB-231 cells at 0.1 to 0.5 uM incubated for 48 hrs by immunoblotting analysis; type: functional, cell-based; conditions: dose 0.1-0.5 µM
[22] = Antiproliferative activity against human MCF-10A cells assessed as inhibition of cell growth incubated for 5 days by CCK8 assay; type: toxicity, cell-based
[23] = Antiproliferative activity against human MRC5 cells assessed as inhibition of cell growth incubated for 5 days by CCK8 assay; type: toxicity, cell-based
[24] = test system: MDA-MB-231; assay: Synergistic antiproliferative activity against human MDA-MB-231 cells assessed as inhibition of cell growth at 0.3 to 7.5 uM incubated for 5 days in presence of cisplatin by CCK8 assay; type: functional, cell-based; conditions: dose 0.3-7.5 µM, time 5.0 day
[25] = test system: MDA-MB-231; assay: Synergistic antiproliferative activity against human MDA-MB-231 cells assessed as inhibition of cell growth at 0.3 to 7.5 uM incubated for 5 days in presence of olaparib by CCK8 assay; type: functional, cell-based; conditions: dose 0.3-7.5 µM, time 5.0 day
[26] = test system: MDA-MB-231; assay: Synergistic antiproliferative activity against human MDA-MB-231 cells assessed as combination index at 1.5 uM incubated for 5 days in presence of cisplatin by CCK8 assay; type: functional; conditions: time 5 day
[27] = test system: MDA-MB-231; assay: Synergistic antiproliferative activity against human MDA-MB-231 cells assessed as combination index at 7.5 uM incubated for 5 days in presence of cisplatin by CCK8 assay; type: functional; conditions: time 5 day
[28] = test system: MDA-MB-231; assay: Synergistic antiproliferative activity against human MDA-MB-231 cells assessed as combination index at 7.5 uM incubated for 5 days in presence of olaparib by CCK8 assay; type: functional; conditions: time 5 day
[29] = biological target: T1, Protein cereblon/Cyclin-dependent kinase 12 (Homo sapiens); assay: In vivo PROTAC activity at CRBN/CDK12 in female CB17SCID mouse model xenografted with human MDA-MB-231 cells assessed as reduction in CDK12 protein expression in tumor at 100 to 200 mg/kg, po administered for 5 days by immunoblotting analysis; type: functional, organism-based; conditions: dose 100-200 mg/kg, time 5.0 day
[30] = biological target: T2, Protein cereblon/Cyclin-dependent kinase 13 (Homo sapiens); assay: In vivo PROTAC activity at CRBN/CDK13 in female CB17SCID mouse model xenografted with human MDA-MB-231 cells assessed as reduction in CDK13 protein expression in tumor at 100 to 200 mg/kg, po administered for 5 days by immunoblotting analysis; type: functional, organism-based; conditions: dose 100-200 mg/kg, time 5.0 day
[31] = test system: MDA-MB-231; assay: Antiproliferative activity against human MDA-MB-231 cells xenografted in female CB17SCID mouse model assessed as induction of tumor apoptosis at 200 mg/kg, po administered for 5 days by H and E staining based immunohistochemical analysis; type: functional, organism-based; conditions: time 5.0 day
[32] = Toxicity in female CB17SCID mouse model xenografted with human MDA-MB-231 cells assessed as body weight loss at 100 to 200 mg/kg, po administered for 5 days; type: organism-based; conditions: in vivo, 120 h, dose 100-200 mg/kg, time 5 day

T1 sequence (Q96SW2 whole entry, looked up): as above
T1 sequence (Q9NYV4 whole entry, looked up): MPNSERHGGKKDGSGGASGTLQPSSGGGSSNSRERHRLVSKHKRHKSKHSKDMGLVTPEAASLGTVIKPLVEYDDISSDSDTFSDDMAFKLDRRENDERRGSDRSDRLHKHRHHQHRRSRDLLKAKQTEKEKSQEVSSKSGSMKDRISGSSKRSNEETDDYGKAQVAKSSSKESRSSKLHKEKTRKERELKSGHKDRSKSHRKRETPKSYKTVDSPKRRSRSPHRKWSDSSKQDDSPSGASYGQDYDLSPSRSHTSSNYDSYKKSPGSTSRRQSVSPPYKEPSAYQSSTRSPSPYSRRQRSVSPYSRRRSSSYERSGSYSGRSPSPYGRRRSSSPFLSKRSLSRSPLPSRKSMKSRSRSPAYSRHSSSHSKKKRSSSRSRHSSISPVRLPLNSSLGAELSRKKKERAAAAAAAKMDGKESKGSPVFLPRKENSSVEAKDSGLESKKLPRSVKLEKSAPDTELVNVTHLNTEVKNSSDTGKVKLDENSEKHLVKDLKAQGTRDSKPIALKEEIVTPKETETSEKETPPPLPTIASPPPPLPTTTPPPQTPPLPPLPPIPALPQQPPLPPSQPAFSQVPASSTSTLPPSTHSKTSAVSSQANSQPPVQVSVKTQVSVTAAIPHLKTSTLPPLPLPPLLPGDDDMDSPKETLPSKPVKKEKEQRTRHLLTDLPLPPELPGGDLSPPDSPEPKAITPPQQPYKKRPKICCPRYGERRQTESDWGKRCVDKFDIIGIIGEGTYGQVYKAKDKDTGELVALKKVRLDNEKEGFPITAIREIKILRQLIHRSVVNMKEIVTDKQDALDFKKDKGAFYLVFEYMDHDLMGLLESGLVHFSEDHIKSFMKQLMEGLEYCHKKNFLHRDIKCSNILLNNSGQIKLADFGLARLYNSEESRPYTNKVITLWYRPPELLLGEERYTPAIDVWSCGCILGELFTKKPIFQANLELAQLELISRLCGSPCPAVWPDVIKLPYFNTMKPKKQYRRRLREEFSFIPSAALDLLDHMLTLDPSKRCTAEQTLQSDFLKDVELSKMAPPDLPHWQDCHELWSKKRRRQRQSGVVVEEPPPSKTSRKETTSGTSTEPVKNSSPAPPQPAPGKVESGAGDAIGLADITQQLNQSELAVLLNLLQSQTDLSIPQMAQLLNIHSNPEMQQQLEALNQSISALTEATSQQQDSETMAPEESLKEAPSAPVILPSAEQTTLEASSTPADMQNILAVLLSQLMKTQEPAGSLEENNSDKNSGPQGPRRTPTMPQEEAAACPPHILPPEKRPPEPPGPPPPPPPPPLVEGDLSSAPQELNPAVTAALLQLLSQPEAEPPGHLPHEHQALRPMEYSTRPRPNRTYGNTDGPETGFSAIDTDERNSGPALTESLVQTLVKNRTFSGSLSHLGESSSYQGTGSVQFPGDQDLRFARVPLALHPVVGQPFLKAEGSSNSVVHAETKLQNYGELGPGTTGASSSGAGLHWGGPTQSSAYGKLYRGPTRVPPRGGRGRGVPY

N#Cc1ccc(N[C@H]2CC[C@H](N(C(=O)NCc3ccccc3)c3ccc(N4CCN(C5CCN(c6cc7c(cc6F)C(=O)N(C6CCC(=O)NC6=O)C7=O)CC5)CC4)cc3)CC2)nc1 (some centres not stated)
Activity [1]: Dose-Dependent Effect | Activity [2]: Dose-Dependent Effect | Activity [3]: Tde | Activity [4]: Dose-Dependent Effect | Activity [5]: Dose-Dependent Effect | Activity [6]: Dose-Dependent Effect | Activity [7]: inactive | Activity [8]: Active | Activity [9]: Active | Activity [10]: inactive | Activity [11]: inactive | Activity [12]: inactive | Activity [13]: Active | Activity [14]: Active | Activity [15]: Dose-Dependent Effect | Activity [16]: Dose-Dependent Effect | Activity [17]: Dose-Dependent Effect | Activity [18]: Dose-Dependent Effect | Activity [19]: Dose-Dependent Effect | Activity [20]: Active | Activity [21]: Active | IC50 at 5 days [22]: > 10 µM | IC50 at 5 days [23]: > 10 µM | Activity [24]: Active | Activity [25]: Active | CI [26]: 0.17 | CI [27]: 0.07 | CI [28]: 0.85 | Activity [29]: Active | Activity [30]: Active | Activity [31]: Active | Activity [32]: Non-Toxic

— ChEMBL document CHEMBL6071181, “Discovery of ZLC491 as a Potent, Selective, and Orally Bioavailable CDK12/13 PROTAC Degrader” (J Med Chem, 2024)
